Results on 1 molecule are retold here after publication PMC9611259, “Antimicrobial Peptides Active in In Vitro Models of Endodontic Bacterial Infections Modulate Inflammation in Human Cardiac Fibroblasts” (Pharmaceutics, 2022).

Converted amounts (≈) assume the structure as drawn. Where a SMILES comes first, the peptide text is derived from it. Bridges are numbered along the chain shown (N, C = ends). Roman numbers before positions name the chains, in order. [ ]: non-standard residue; d: D form. βAla = NCCC(=O)O

The subject of one data set is P. aeruginosa ATCC 27853. The class given is cell-based, Pseudomonas aeruginosa. As to the method:
(§1) The bacteria reported in Table 1 were used for conventional susceptibility testing experiments. M33D and M33i/l MICs were determined in triplicate on reference and clinical strains using a microdilution assay, performed according to the guidelines of the Clinical and Laboratory Standards Institute. Briefly, strains were grown on Mueller–Hinton (MH) agar plates (Becton Dickinson, Franklin Lakes, NJ, USA) and a single colony for each strain was picked using a sterile cotton swab, streaked in sterile cation-supplemented MH, and measured with a densitometer (Densichek, bioMèrieux, Marcy l’Etoile, France) up to 0.15 optical density. Wells of a microtiter plate containing 50 μL serial-doubling dilutions of the peptides were inoculated with an equal volume of bacterial suspension. The final bacterial inoculum was 5 × 10^4 CFU/well in a volume of 100 μL. […] Assays were performed in triplicate, and the median MIC values were recorded.

In a further data set the test system is P. aeruginosa AV 65. Type of data set: cell-based, Pseudomonas aeruginosa. As for the experimental part:
as §1

The test system of the next data set is S. aureus 3851. The class given is cell-based, Staphylococcus aureus. As to the method:
as §1

A further data set relates to S. aureus USA 300. Type of data set: cell-based, Staphylococcus aureus. As to the method:
as §1

In a further data set the test system is S. epidermidis 6154. Type of data set: cell-based. As for the experimental part:
as §1

Data set [1] concerns S. epidermidis ATCC 14990. Type of data set: cell-based. As to the method:
as §1

For data set [2], the system named is E. faecalis PE. Type of data set: cell-based, Enterococcus faecalis. As to the method: as §1
Data set [3] relates to E. faecalis ATCC 51299. Type of data set: cell-based, Enterococcus faecalis. As for the experimental part:
as §1

The next data set is described as follows: in vitro. The class given is in vitro ADME. To be noted: human, serum. As for the experimental part: A pool of sera from healthy volunteers (n = 5) was diluted to 50% with RPMI 1640 medium. A 5 μg/mL solution of the peptides in 50% serum was incubated at 37 °C for different time intervals (2, 4, 24, 48, and 72 h). At the established time, trichloroacetic acid was added at a 7.5% concentration, and the sample was centrifuged at 12,000–13,000× g for 15 min. Part of the supernatant was used for the MALDI-TOF analysis (2 μL) and part (250 μL) for the HPLC analysis, after being diluted with 1% TFA (750 μL). Time-zero HPLC and MS-spectroscopy spectra were obtained immediately after mixing the peptide with 50% serum. The presence of the intact peptide was determined in HPLC by spotting and integrating the peptide peak at the correct retention time. The identity of the peptide peak was further also confirmed by MALDI mass spectrometry.

In data set [4] the test system is E. faecalis PE. The class given is cell-based, Enterococcus faecalis. The following applies: 24 h preformed biofilm challenged with peptide 14 h at 37 °C, crystal violet OD595, triplicate wells. As for the experimental part:
(§2) For MBIC, the bacterial suspension (200 μL) of E. faecalis PE, E. faecalis 51299, E. coli TG1, or E. coli LC711, obtained as above, was added to wells in triplicate, in a 96-well U-bottom plate and incubated at 37 °C for 24h. The supernatant was removed, and 200 μL M33D and M33i/l diluted in TSB was added to the wells in twofold serial dilutions of each peptide.
(§3) Untreated bacteria were used as positive control. After 14 h of static incubation at 37 °C, wells were washed thrice with PBS and fixed with PFA 4% in PBS (200 μL) for 30 min at room temperature. Wells were then washed three times, and crystal violet (1% in water) was added and incubated for 30 min in the dark. Wells were again washed, and the color dissolved with ethanol/acetone 80:20. Color was read at 595 nm. The MBIC is the lowest concentration of an antibiotic that results in an OD595 nm difference of ≤10% of the mean of two control well readings.
(§4) Biofilm inhibition activity was evaluated on the basis of two parameters: the biofilm prevention concentration (BPC) and the minimal biofilm inhibition concentration (MBIC). The BPC is the lowest concentration of peptide that results in 10% lower biofilm formation compared to untreated controls. The biofilm was measured after removing planktonic cells by washing the wells, previously incubated for 24 h with the bacteria and the peptide. MBIC is the lowest concentration of peptide that results in a 10% reduction in preformed biofilm compared to untreated controls. A 24 h biofilm was challenged with serial dilutions of the peptides for 14 h. Then after removal of planktonic cells, the residual biofilm was measured. Crystal violet absorbance at […] was used to measure biofilm in the case of both parameters.

For data set [5], the system named is E. faecalis ATCC 51299. The class given is cell-based, Enterococcus faecalis. The following applies: 24 h preformed biofilm challenged with peptide 14 h at 37 °C, crystal violet OD595, triplicate wells. As to the method: as §2, §3, §4
Data set [6] concerns E. coli TG1. The class given is cell-based, Escherichia coli. To be noted: 24 h preformed biofilm challenged with peptide 14 h at 37 °C, crystal violet OD595, triplicate wells. As to the method: as §2, §3, §4
Data set [7] concerns E. coli LC711. Type of data set: cell-based, Escherichia coli. To be noted: 24 h preformed biofilm challenged with peptide 14 h at 37 °C, crystal violet OD595, triplicate wells. As for the experimental part:
as §2, §3, §4

In the next data set the test system is K. pneumoniae ATCC 13833. Type of data set: cell-based, Klebsiella pneumoniae. As for the experimental part:
as §1

A further data set concerns K. pneumoniae 7086042. Type of data set: cell-based, Klebsiella pneumoniae. As to the method:
as §1

Data set [8] is described as follows: Eukaryotic cell viability assay (MTT). The class given is cell-based, murine. The following applies: mouse. As to the method: RAW 264.7 cells, 5 × 10^3 per well, were seeded in 96-well plates and incubated for 24 h at 37 °C in a 5% CO2 atmosphere. A 100 μL volume of peptides at different concentrations in fresh medium was then added to the wells and kept for 24 h. Then 20 μL MTT (5 mg/mL) was added to each well, and the plate was incubated at 37 °C for 3 h. Finally, 120 μL HCl 4 mM in isopropanol was added to each well to dissolve the formazan crystals. Optical density was measured with a microplate reader (Bio-Rad, Hercules, CA, USA) at 570 nm. Cell viability was calculated by comparing the values of treated with those of untreated cells. Curves and EC50 were calculated using GraphPad Prism 5.03 software.

Another data set deals with E. coli W03BG0025. Type of data set: cell-based, Escherichia coli. As to the method:
as §1

For data set [9], the system named is E. coli TG1. Type of data set: cell-based, Escherichia coli. The following applies: reference strain; CLSI microdilution, 5 × 10^4 CFU/well, 35° 18–20 h, median of triplicate. As for the experimental part:
as §1
A general note: Dilution methods test growth across graded concentrations, often in twofold steps.

The test system of another data set is E. coli ATCC 25922. Type of data set: cell-based, Escherichia coli. As to the method:
as §1

The subject of data set [10] is E. coli LC711. The class given is cell-based, Escherichia coli. To be noted: ColR (colistin-resistant) clinical isolate; CLSI microdilution, 5 × 10^4 CFU/well, 35° 18–20 h, median of triplicate. As to the method: as §1

The term fraction remaining denotes the share of the starting amount still present when the sample was taken. A word on the EC50: it is the concentration giving half of the maximal effect. Low readings indicate higher potency in that assay, high ones lower potency in that assay. Take `CC(C)C[C@@H](NC(=O)[C@@H](CCCCN)NC(=O)[C@H](N)CCCCN)C(=O)N[C@H](CCCNC(=N)N)C(=O)N[C@@H](C(=O)N[C@H](CCCNC(=N)N)C(=O)N[C@H](CC(C)C)C(=O)N[C@H](CO)C(=O)N[C@H](C)C(=O)NCCCC[C@H](NC(=O)[C@@H](C)NC(=O)[C@@H](CO)NC(=O)[C@@H](CC(C)C)NC(=O)[C@@H](CCCNC(=N)N)NC(=O)[C@H](NC(=O)[C@@H](CCCNC(=N)N)NC(=O)[C@@H](CC(C)C)NC(=O)[C@@H](CCCCN)NC(=O)[C@H](N)CCCCN)C(C)C)C(=O)NCCCC[C@H](NC(=O)[C@H](CCCCNC(=O)[C@@H](C)NC(=O)[C@@H](CO)NC(=O)[C@@H](CC(C)C)NC(=O)[C@@H](CCCNC(=N)N)NC(=O)[C@H](NC(=O)[C@@H](CCCNC(=N)N)NC(=O)[C@@H](CC(C)C)NC(=O)[C@@H](CCCCN)NC(=O)[C@H](N)CCCCN)C(C)C)NC(=O)[C@@H](C)NC(=O)[C@@H](CO)NC(=O)[C@@H](CC(C)C)NC(=O)[C@@H](CCCNC(=N)N)NC(=O)[C@H](NC(=O)[C@@H](CCCNC(=N)N)NC(=O)[C@@H](CC(C)C)NC(=O)[C@@H](CCCCN)NC(=O)[C@H](N)CCCCN)C(C)C)C(=O)NCCC(=O)O)C(C)C` [M33i/l] (I: H-[dK][dK][dL][dR][dV][dR][dL][dS][dA]KK[βAla]-OH / II: H-[dK][dK][dL][dR][dV][dR][dL][dS][dA]K / III: H-[dK][dK][dL][dR][dV][dR][dL][dS][dA] / IV: H-[dK][dK][dL][dR][dV][dR][dL][dS][dA]; amide I:10-IV:C, I:11-II:C, II:10-III:C): the MIC is listed as 0.8 (4) μM in the data set on P. aeruginosa ATCC 27853; 1.5 (8) μM in the data set with P. aeruginosa AV 65; 0.8 (4) μM against S. aureus 3851; 1.5 (8) μM in the data set on S. aureus USA 300; 0.8 (4) μM in the data set on S. epidermidis 6154; 0.8 (4) μM in data set [1]. The MIC against E. faecalis PE [2] was 1.5 (8) μM; against E. faecalis ATCC 51299 [3], 1.5 (8) μM; with K. pneumoniae ATCC 13833 it was 3 (16) μM; against K. pneumoniae 7086042 it was 6 (32) μM; with E. coli W03BG0025 it was 3 (16) μM; in the data set on E. coli TG1 [9] it was 1.5 µM (≈ 7.02 µg/mL). The values for the MIC against E. coli ATCC 25922 and in the data set on E. coli LC711 [10] were 3 (16) μM and 0.3 (1.6) μM, respectively. This molecule displayed a fraction remaining at 72 h, 5 μg/mL in the data set “in vitro” of 25%. Further, the MBIC with E. faecalis PE [4] was 6 µM; with E. faecalis ATCC 51299 [5] it was 6 µM; with E. coli TG1 [6] it was 3 µM; in the data set with E. coli LC711 [7], 3 µM. The molecule also yielded a concentration for a half-maximal effect (EC50) at 24 h in data set [8] of 18 µM.
